Tested on: NBD1/3D
Experiment: Aggregation analysis using differential static light scattering (DSLS), NBD1 thermal stability
Type: binding, Human
Conditions: ΔTagg versus DMSO control; compound at 100 μM
Method in brief: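 Purified NBD1 at 0.2 mg/ml in S200 buffer (pH 7.6, 2 mM ATP, 5 mM MgCl2, 1% glycerol) was heated with compound at 1 °C/min to 70 °C. Tagg taken from the light-scattering curve inflection point; ΔTagg = compound Tagg minus mean DMSO control Tagg.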

SMILES	DSLS NBD1/3D Human Stability delta-T (° C.) @ 100 (μM)
CC1(C)COC(c2cccc(CCC(=O)O)c2)(c2cnc(-c3cc(Oc4c(F)c(F)c5[nH]ccc5c4F)ccc3F)[nH]2)OC1 [Example 227, 3-(3-(2-(2-(2-Fluoro-5-((4,6,7-trifluoro-1H-indol-5-yl)oxy)phenyl)-1H-imidazol-5-yl)-5,5-dimethyl-1,3-dioxan-2-yl)phenyl)propanoic acid]	A (A: T ≥ 10° C.)
Cc1c(Oc2ccc(F)c(-c3ncc(C(C)(C#N)c4cccc(CCC(=O)O)c4)[nH]3)c2)c(F)c(F)c2[nH]ccc12 (stereo not drawn) [Example 56, 3-(3-(1-cyano-1-(2-(5-((6,7-difluoro-4-methyl-1H-indol-5-yl)oxy)-2-fluorophenyl)-1H-imidazol-5-yl)ethyl)phenyl)propanoic acid]	B (B: 5-10° C.)
O=C(O)CCc1cccc(C2(c3cnc(-c4cc(Oc5c(F)cc6[nH]ccc6c5SC(F)(F)F)ccc4F)[nH]3)CCOCC2)c1 [Example 82, 3-(3-(4-(2-(2-Fluoro-5-((6-fluoro-4-((trifluoromethyl)thio)-1H-indol-5-yl)oxy)phenyl)-1H-imidazol-5-yl)tetrahydro-2H-pyran-4-yl)phenyl)propanoic acid]	B (B: 5-10° C.)
Cc1c(Oc2ccc(F)c(-c3ncc(C(C)(O)c4cccc(CCC(=O)O)c4)[nH]3)c2)c(F)cc2[nH]ccc12 (stereo not drawn) [Example 186, 3-(3-(1-(2-(2-fluoro-5-((6-fluoro-4-methyl-1H-indol-5-yl)oxy)phenyl)-1H-imidazol-5-yl)-1-hydroxyethyl)phenyl) propanoic acid]	B (B: 5-10° C.)
CC(c1nnc(-c2cc(Oc3c(F)cc4[nH]ccc4c3F)ccc2F)[nH]1)c1cccc(CCC(=O)O)c1F (single isomer, unassigned) [Example 252B, 3-(3-(1-(5-(5-((4,6-difluoro-1H-indol-5-yl)oxy)-2-fluorophenyl)-4H-1,2,4-triazol-3-yl)ethyl)-2-fluorophenyl)propanoic acid]	C (C: ≤5° C.)
Cc1c(Oc2ccc(F)c(-c3ncc(C4(c5cccc(CCC(=O)O)c5)CCCC4)[nH]3)c2)c(F)cc2[nH]ccc12 [Example 146, 3-(3-(1-(2-(2-fluoro-5-((6-fluoro-4-methyl-1H-indol-5-yl)oxy)phenyl)-1H-imidazol-5-yl)cyclopentyl)phenyl)propanoic acid]	B (B: 5-10° C.)
[2H]c1c[nH]c2c(F)c(F)c(Oc3ccc(F)c(-c4nc(C(C#N)(c5cc(F)cc(CCC(=O)O)c5)C([2H])([2H])[2H])c[nH]4)c3)c(F)c12 (single isomer, unassigned) [Example 67A, 3-(3-(1-cyano-1-(2-(2-fluoro-5-((4,6,7-trifluoro-1H-indol-5-yl-3-d)oxy)phenyl)-1H-imidazol-4-yl)ethyl-2,2,2-d3)-5-fluorophenyl)propanoic acid]	B (B: 5-10° C.)
Cc1c(Oc2ccc(F)c(-c3nc(Cc4cccc(CCC(=O)O)c4)c[nH]3)c2)ccc2[nH]ccc12 [Example 109, 3-(3-((2-(2-fluoro-5-((4-methyl-1H-indol-5-yl)oxy)phenyl)-1H-imidazol-4-yl)methyl)phenyl)propanoic acid]	B (B: 5-10° C.)
CO[C@]1(C)C[C@@](c2cccc(CCC(=O)O)c2)(c2c[nH]c(-c3cc(Oc4c(F)cc5[nH]ccc5c4S(C)(=O)=O)ccc3F)n2)C1 [Example 71, 3-(3-((1r,3r)-1-(2-(2-fluoro-5-((6-fluoro-4-(methylsulfonyl)-1H-indol-5-yl)oxy)phenyl)-1H-imidazol-4-yl)-3-methoxy-3-methylcyclobutyl)phenyl)propanoic acid]	A (A: T ≥ 10° C.)
CC(O)(c1cccc(CCC(=O)O)c1)c1cnc(-c2cc(Oc3c(F)cc4[nH]ccc4c3CC(F)(F)F)ccc2F)[nH]1 (stereo not drawn) [Example 190, 3-(3-(1-(2-(2-fluoro-5-((6-fluoro-4-(2,2,2-trifluoroethyl)-1H-indol-5-yl)oxy)phenyl)-1H-imidazol-5-yl)-1-hydroxyethyl)phenyl) propanoic acid]	B (B: 5-10° C.)
CC(c1coc(-c2cc(Oc3c(F)cc4[nH]ccc4c3S(C)(=O)=O)ccc2F)n1)c1cccc(CCC(=O)O)c1F (single isomer, unassigned) [Example 43B, 3-(2-fluoro-3-(1-(2-(2-fluoro-5-((6-fluoro-4-(methylsulfonyl)-1H-indol-5-yl)oxy)phenyl)oxazol-4-yl)ethyl)phenyl)propanoic acid]	C (C: ≤5° C.)
Cc1c(Oc2ccc(F)c(-c3ncc(C(O)(c4cccc(CCC(=O)O)c4)C(C)C)[nH]3)c2)c(F)cc2[nH]ccc12 (stereo not drawn) [Example 224, 3-(3-(1-(2-(2-fluoro-5-((6-fluoro-4-methyl-1H-indol-5-yl)oxy)phenyl)-1H-imidazol-5-yl)-1-hydroxy-2-methylpropyl)phenyl) propanoic acid]	B (B: 5-10° C.)
Cc1c(Oc2ccc(F)c(-c3ncc(Cc4cc(F)cc(CCC(=O)O)c4)[nH]3)c2)ccc2[nH]ccc12 [Example 106, 3-(3-fluoro-5-((2-(2-fluoro-5-((4-methyl-1H-indol-5-yl)oxy)phenyl)-1H-imidazol-5-yl)methyl)phenyl)propanoic acid]	B (B: 5-10° C.)
CC(c1c[nH]c(-c2cc(Oc3c(F)cc4[nH]ccc4c3S(C)(=O)=O)ccc2F)n1)c1cccc(CC(=O)O)c1F (single isomer, unassigned) [Example 85, 2-(2-fluoro-3-(1-(2-(2-fluoro-5-((6-fluoro-4-(methylsulfonyl)-1H-indol-5-yl)oxy)phenyl)-1H-imidazol-4-yl)ethyl)phenyl)acetic acid]	B (B: 5-10° C.)
Cc1c(Oc2ccc(F)c(-c3ncc(C(C)c4cccc([C@H]5C[C@H]5C(=O)O)c4F)[nH]3)c2)c(F)cc2[nH]ccc12 (single isomer, unassigned) [Example 138D, cis-2-(2-fluoro-3-(1-(2-(2-fluoro-5-((6-fluoro-4-methyl-1H-indol-5-yl)oxy)phenyl)-1H-imidazol-5-yl)ethyl)phenyl)cyclopropane-1-carboxylic acid]	C (C: ≤5° C.)
Cc1c(Oc2cccc(-c3ncc(C(C)(O)c4cccc(CCC(=O)O)c4)[nH]3)c2)c(F)cc2[nH]ccc12 (stereo not drawn) [Example 185, 3-(3-(1-(2-(3-((6-fluoro-4-methyl-1H-indol-5-yl)oxy)phenyl)-1H-imidazol-5-yl)-1-hydroxyethyl)phenyl) propanoic acid]	A (A: T ≥ 10° C.)
O=C(O)CCc1cc(F)cc(Cc2c[nH]c(-c3cc(Oc4c(F)cc5[nH]ccc5c4F)ccc3F)n2)c1 [Example 114, 3-(3-((2-(5-((4,6-difluoro-1H-indol-5-yl)oxy)-2-fluorophenyl)-1H-imidazol-4-yl)methyl)-5-fluorophenyl)propanoic acid]	B (B: 5-10° C.)
CC(O)(c1cccc(CCC(=O)O)c1)c1c[nH]c(-c2cc(Oc3cc4cc[nH]c4c(F)c3F)ccc2F)n1 (stereo not drawn) [Example 198, 3-(3-(1-(2-(5-((6,7-difluoro-1H-indol-5-yl)oxy)-2-fluorophenyl)-1H-imidazol-4-yl)-1-hydroxyethyl)phenyl) propanoic acid]	A (A: T ≥ 10° C.)
CC(CC#N)(c1cccc(CCC(=O)O)c1)c1cnc(-c2cc(Oc3c(F)cc4[nH]ccc4c3S(C)(=O)=O)ccc2F)[nH]1 (stereo not drawn) [Example 76, 3-(3-(1-Cyano-2-(2-(2-fluoro-5-((6-fluoro-4-(methylsulfonyl)-1H-indol-5-yl)oxy)phenyl)-1H-imidazol-5-yl)propan-2-yl)phenyl)propanoic acid]	A (A: T ≥ 10° C.)
CC(c1c[nH]c(-c2cc(Oc3c(F)cc4[nH]ccc4c3CC(F)F)ccc2F)n1)c1cccc(CCC(=O)O)c1F (single isomer, unassigned) [Example 129B, 3-(3-(1-(2-(5-((4-(2,2-difluoroethyl)-6-fluoro-1H-indol-5-yl)oxy)-2-fluorophenyl)-1H-imidazol-4-yl)ethyl)-2-fluorophenyl)propanoic acid]	C (C: ≤5° C.)
Cc1c(Oc2ccc(F)c(-c3ncc(C4(c5cccc(CCC(=O)O)c5)CC(C)OC(C)C4)[nH]3)c2)c(F)cc2[nH]ccc12 (stereo not drawn) [Example 149, 3-(3-(4-(2-(2-fluoro-5-((6-fluoro-4-methyl-1H-indol-5-yl)oxy)phenyl)-1H-imidazol-5-yl)-2,6-dimethyltetrahydro-2H-pyran-4-yl)phenyl)propanoic acid]	B (B: 5-10° C.)
CC(Cc1cccc([C@H](O)c2cnc(-c3cccc(Oc4c(F)cc5[nH]ccc5c4F)c3)[nH]2)c1)C(=O)O (stereo partly drawn) [Example 181, 3-(3-((S)-(2-(3-((4,6-Difluoro-1H-indol-5-yl)oxy)phenyl)-1H-imidazol-5-yl)(hydroxy)methyl)phenyl)-2-methylpropanoic acid]	B (B: 5-10° C.)
O=C(O)CSc1cccc(Cc2nnc(-c3cccc(Oc4c(F)cc5[nH]ccc5c4F)c3)[nH]2)c1 [Example 261, 2-((3-((5-(3-((4,6-Difluoro-1H-indol-5-yl)oxy)phenyl)-4H-1,2,4-triazol-3-yl)methyl)phenyl)thio)acetic acid]	C (C: ≤5° C.)
CS(=O)(=O)c1c(Oc2cccc(-c3nc(Cc4cccc(CCC(=O)O)c4)co3)c2)c(F)cc2[nH]ccc12 [Example 42, 3-(3-((2-(3-((6-Fluoro-4-(methylsulfonyl)-1H-indol-5-yl)oxy)phenyl)oxazol-4-yl)methyl)phenyl)propanoic acid]	B (B: 5-10° C.)
